Laboratory results from patent US11260023B2, “Topical compositions containing rofecoxib and methods of making and using the same” (BRIORI BIOTECH, LLC, priority 2020, dated 2022).
Several values for one entry are separate records, joined by “and”; a condition that tells them apart may be missing. Equal values may be shown once.

Test: Solubility of rofecoxib in solvent systems containing two or three solvents; synergistic or antagonist effect
Assay type: physicochemical
Experimental: The solubility of rofecoxib in solvent systems containing two or three solvents was determined. In solvent systems containing two solvents, […] of each solvent was added to 100 mg of rofecoxib. In solvent systems containing three solvents, […] of each solvent was added to 100 mg of rofecoxib. The samples were mixed using the protocol for solvent systems containing single solvents above. Serial dilutions of the rofecoxib solvent solutions were made (1:100 v:v), (1:1000 v/v), and (1:2000 v/v). Solvents without rofecoxib were diluted with methanol and used to blank a Beckman DU-7400 spectrophotometer. The absorbance of the samples was determined at a wavelength of 279.1 nm. The concentration of rofecoxib dissolved in the solvent was calculated using Beer's Law. The ability of the solvent systems to synergistically dissolve rofecoxib or antagonistically dissolve rofecoxib (reduce the ability of rofecoxib to dissolve was determined) according to the protocol below. The contribution for solubility of a single solvent in a two-mixture solution was calculated to be ½ of the calculated solubility of rofecoxib in one gram of excipient. Likewise, the contribution for solubility of a three-mixture was calculated to be ⅓ of the calculated solubility of rofecoxib in one gram of excipient. The expected solubility for a mixture is the addition of the contribution of each excipient. […] The percent change between the expected solubility and actual solubility was determined. […] Similar calculations are utilized for solvent systems containing three or more solvents.

SMILES: CS(=O)(=O)c1ccc(C2=C(c3ccccc3)C(=O)OC2)cc1 [Rofecoxib]
- Synergistic effect of three-solvent systems on dissolving rofecoxib (AC/PEG/PGD, BA/AC/PEG, BA/PEG/PGD, PC/AC/PGD, BA/AC/PGD, PC/PEG/PGD, DI/PC/AC, PC/BA/AC, DI/PC/BA, DI/PC/EA, PC/AC/PEG, DI/PC/DGME, DI/PC/PEG, DI/PC/PGD, DI/BA/PC, DI/PC/DMSO): work synergistically to dissolve rofecoxib
- Synergistic effect of two-solvent systems on dissolving rofecoxib (BA/AC, AC/PEG, EA/PPG, PEG/EA, AC/DGME, AC/PC, AC/DI, PC/DI, PEG/PGD, AC/PGD, DI/PGD, PC/PGD, EA/DMSO, PEG/DGME, EA/DGME, EA/BA, DGME/PGD, BA/PGD, EA/M24D): work synergistically to dissolve rofecoxib
- expected solubility of rofecoxib in 500 μg of acetone (contribution of acetone in system of equal amounts acetone and benzyl alcohol): 11.79 mg/g
- expected solubility of rofecoxib in 500 μg of benzyl alcohol (contribution of benzyl alcohol in system of equal amounts acetone and benzyl alcohol): 9.77 mg/g
- % Change (observed vs expected solubility) (in AC + DGME): 139.9%
- Expected Solubility (in AC + DGME): 16.30 mg/g
- Observed Solubility (in AC + DGME): 22.80 mg/g
- % Change (observed vs expected solubility) (in AC + EA): 109.7%
- Expected Solubility (in AC + EA): 14.52 mg/g
- Observed Solubility (in AC + EA): 15.92 mg/g
- % Change (observed vs expected solubility) (in AC + MP): 97.9% and 52.7%
- Expected Solubility (in AC + MP): 110.77 mg/g
- Observed Solubility (in AC + MP): 108.48 mg/g and 58.38 mg/g
- % Change (observed vs expected solubility) (in AC + MP + PEG): 34.29%
- Expected Solubility (in AC + MP + PEG): 78.24 mg/g
- % Change (observed vs expected solubility) (in AC + MP + PGD): 77.19%
- Expected Solubility (in AC + MP + PGD): 76.17 mg/g
- % Change (observed vs expected solubility) (in AC + PEG): 137.2% and 174.3%
- Expected Solubility (in AC + PEG): 18.34 mg/g
- Observed Solubility (in AC + PEG): 25.15 mg/g and 31.96 mg/g
- Expected Solubility (in AC + PEG + PGD): 14.55 mg/g
- % Change (observed vs expected solubility) (in AC + PGD): 124.0% and 113.7%
- Expected Solubility (in AC + PGD): 15.23 mg/g
- Observed Solubility (in AC + PGD): 18.88 mg/g and 17.32 mg/g
- % Change (observed vs expected solubility) (in BA + AC): 150.7% and 134.8% and 100.7% and 185.3%
- Expected Solubility (in BA + AC): 21.54 mg/g and 31.65 mg/g
- Observed Solubility (in BA + AC): 32.46 mg/g and 29.03 mg/g and 31.86 mg/g and 39.91 mg/g
- % Change (observed vs expected solubility) (in BA + AC + MP): 48.23%
- Expected Solubility (in BA + AC + MP): 80.37 mg/g
- Expected Solubility (in BA + AC + PEG): 18.75 mg/g
- % Change (observed vs expected solubility) (in BA + AC + PGD): 197.12%
- Expected Solubility (in BA + AC + PGD): 16.68 mg/g
- Observed Solubility (in BA + AC + PGD): 32.89 mg/g
- Expected Solubility (in BA + AC, listed as rofecoxib): 21.56 mg/g
- % Change (observed vs expected solubility) (in BA + DGME): 64.2%
- Expected Solubility (in BA + DGME): 14.31 mg/g
- Observed Solubility (in BA + DGME): 9.18 mg/g
- % Change (observed vs expected solubility) (in BA + EA): 116.8%
- Expected Solubility (in BA + EA): 12.52 mg/g
- Observed Solubility (in BA + EA): 14.63 mg/g
- % Change (observed vs expected solubility) (in BA + MP): 41.3% and 30.8%
- Expected Solubility (in BA + MP): 108.77 mg/g
- Observed Solubility (in BA + MP): 44.97 mg/g and 33.53 mg/g
- % Change (observed vs expected solubility) (in BA + MP + PEG): 40.43%
- Expected Solubility (in BA + MP + PEG): 76.89 mg/g
- % Change (observed vs expected solubility) (in BA + MP + PGD): 85.42%
- Expected Solubility (in BA + MP + PGD): 74.82 mg/g
- % Change (observed vs expected solubility) (in BA + PEG): 63.2% and 61.6% and 60.6%
- Expected Solubility (in BA + PEG): 16.34 mg/g
- Observed Solubility (in BA + PEG): 10.33 mg/g and 10.06 mg/g and 9.91 mg/g
- Expected Solubility (in BA + PEG + PGD): 13.20 mg/g
- % Change (observed vs expected solubility) (in BA + PGD): 110.9% and 103.2%
- Expected Solubility (in BA + PGD): 13.24 mg/g
- Observed Solubility (in BA + PGD): 14.67 mg/g and 13.66 mg/g
- % Change (observed vs expected solubility) (in DGME + EA): 117.3%
- Expected Solubility (in DGME + EA): 7.29 mg/g
- Observed Solubility (in DGME + EA): 8.54 mg/g
- % Change (observed vs expected solubility) (in DGME + PGD): 115.7%
- Expected Solubility (in DGME + PGD): 8.00 mg/g
- Observed Solubility (in DGME + PGD): 9.26 mg/g
- % Change (observed vs expected solubility) (in DI + AC): 134.6%
- Expected Solubility (in DI + AC): 31.34 mg/g
- Observed Solubility (in DI + AC): 42.18 mg/g
- % Change (observed vs expected solubility) (in DI + BA): 72.3%
- Expected Solubility (in DI + BA): 29.34 mg/g
- Observed Solubility (in DI + BA): 21.20 mg/g
- % Change (observed vs expected solubility) (in DI + BA + DMSO): 85.05%
- Expected Solubility (in DI + BA + DMSO): 67.43 mg/g
- % Change (observed vs expected solubility) (in DI + BA + PC): 155.19%
- Expected Solubility (in DI + BA + PC): 36.04 mg/g
- Observed Solubility (in DI + BA + PC): 55.93 mg/g
- % Change (observed vs expected solubility) (in DI + DGME): 95.0%
- Expected Solubility (in DI + DGME): 24.11 mg/g
- Observed Solubility (in DI + DGME): 22.91 mg/g
- % Change (observed vs expected solubility) (in DI + EA): 69.9%
- Expected Solubility (in DI + EA): 22.32 mg/g
- Observed Solubility (in DI + EA): 15.60 mg/g
- % Change (observed vs expected solubility) (in DI + MP): 71.6%
- Expected Solubility (in DI + MP): 118.57 mg/g
- Observed Solubility (in DI + MP): 84.92 mg/g
- % Change (observed vs expected solubility) (in DI + PC): 133.9% and 130.6%
- Expected Solubility (in DI + PC): 44.29 mg/g
- Observed Solubility (in DI + PC): 59.30 mg/g and 57.83 mg/g
- % Change (observed vs expected solubility) (in DI + PC + AC): 143.72%
- Expected Solubility (in DI + PC + AC): 37.38 mg/g
- Observed Solubility (in DI + PC + AC): 53.73 mg/g
- % Change (observed vs expected solubility) (in DI + PC + BA): 132.30%
- Expected Solubility (in DI + PC + BA): 36.04 mg/g
- Observed Solubility (in DI + PC + BA): 47.68 mg/g
- % Change (observed vs expected solubility) (in DI + PC + DGME): 123.28%
- Expected Solubility (in DI + PC + DGME): 32.55 mg/g
- Observed Solubility (in DI + PC + DGME): 40.12 mg/g
- % Change (observed vs expected solubility) (in DI + PC + DMSO): 114.83%
- Expected Solubility (in DI + PC + DMSO): 77.39 mg/g
- % Change (observed vs expected solubility) (in DI + PC + EA): 128.04%
- Expected Solubility (in DI + PC + EA): 31.36 mg/g
- Observed Solubility (in DI + PC + EA): 40.15 mg/g
- % Change (observed vs expected solubility) (in DI + PC + PEG): 119.10%
- Expected Solubility (in DI + PC + PEG): 33.90 mg/g
- Observed Solubility (in DI + PC + PEG): 40.38 mg/g
- % Change (observed vs expected solubility) (in DI + PC + PGD): 115.12%
- Expected Solubility (in DI + PC + PGD): 31.83 mg/g
- Observed Solubility (in DI + PC + PGD): 36.65 mg/g
- % Change (observed vs expected solubility) (in DI + PEG): 105.8%
- Expected Solubility (in DI + PEG): 26.14 mg/g
- Observed Solubility (in DI + PEG): 27.65 mg/g
